# Several values for one entry are separate records, joined by “and”; a condition that tells them apart may be missing. Equal entries are not always repeated. Where two headings read alike, the source gives them in different places.
# How the values were obtained:
# human KOR (GoB) [1] = target: T1, human KOR (GoB) (Homo sapiens, UniProt P41145, N141A); test: cell-based; settings: HEK-293T
# T1 construct: expressed in transfected cells; host or cells: HEK293T
# human KOR (GoB) [2] = target: T2, human KOR (GoB) (Homo sapiens, UniProt P41145, G319L); test: cell-based; settings: HEK-293T
# T2 construct: expressed in transfected cells; host or cells: HEK293T
# human KOR (GoB) [3] = target: T3, human KOR (GoB) (Homo sapiens, UniProt P41145, R170A); test: cell-based; settings: HEK-293T
# T3 construct: expressed in transfected cells; host or cells: HEK293T
# human KOR (GoB) [4] = target: T4, human KOR (GoB) (Homo sapiens, UniProt P41145, R274A); test: cell-based; settings: HEK-293T
# T4 construct: expressed in transfected cells; host or cells: HEK293T
# human KOR (GoB) [5] = target: T5, human KOR (GoB) (Homo sapiens, UniProt P41145, F114L); test: cell-based; settings: HEK-293T
# T5 construct: expressed in transfected cells; host or cells: HEK293T
# human KOR (GoB) [6] = target: T6, human KOR (GoB) (Homo sapiens, UniProt P41145, N326A); test: cell-based; settings: HEK-293T
# T6 construct: expressed in transfected cells; host or cells: HEK293T
# human KOR (GoB) [7] = target: T7, human KOR (GoB) (Homo sapiens, UniProt P41145, L253A); test: cell-based; settings: HEK-293T
# T7 construct: expressed in transfected cells; host or cells: HEK293T
# human KOR (GoB) [8] = target: T8, human KOR (GoB) (Homo sapiens, UniProt P41145, R257A); test: cell-based; settings: HEK-293T
# T8 construct: expressed in transfected cells; host or cells: HEK293T
# human KOR (GoB) [9] = target: T9, human KOR (GoB) (Homo sapiens, UniProt P41145, N322A); test: cell-based; settings: HEK-293T
# T9 construct: expressed in transfected cells; host or cells: HEK293T
# human KOR (GoB) [10] = target: T10, human KOR (GoB) (Homo sapiens, UniProt P41145); test: cell-based
# T10 construct: expressed in transfected cells; host or cells: HEK293T
# MOR = target: T11, MOR (Homo sapiens, UniProt P35372); test: BRET-Gi1 protein activation; assay type: cell-based
# T11 construct: expressed in transfected cells; host or cells: HEK293
# human KOR (β-arrestin 2) [11] = target: T12, human KOR (β-arrestin 2) (Homo sapiens, UniProt P41145, F283A); test: cell-based; settings: HEK-293T
# T12 construct: expressed in transfected cells; host or cells: HEK293T
# human KOR (β-arrestin 2) [12] = target: T13, human KOR (β-arrestin 2) (Homo sapiens, UniProt P41145, K227A); test: cell-based; settings: HEK-293T
# T13 construct: expressed in transfected cells; host or cells: HEK293T
# human KOR (β-arrestin 2) [13] = target: T14, human KOR (β-arrestin 2) (Homo sapiens, UniProt P41145, D334A); test: cell-based; settings: HEK-293T
# T14 construct: expressed in transfected cells; host or cells: HEK293T
# human KOR (β-arrestin 2) [14] = target: T15, human KOR (β-arrestin 2) (Homo sapiens, UniProt P41145, E297A); test: cell-based; settings: HEK-293T
# T15 construct: expressed in transfected cells; host or cells: HEK293T
# human KOR (β-arrestin 2) [15] = target: T16, human KOR (β-arrestin 2) (Homo sapiens, UniProt P41145, L253A); test: cell-based; settings: HEK-293T
# T16 construct: expressed in transfected cells; host or cells: HEK293T
# human KOR (β-arrestin 2) [16] = target: T17, human KOR (β-arrestin 2) (Homo sapiens, UniProt P41145, Y139L); test: cell-based; settings: HEK-293T
# T17 construct: expressed in transfected cells; host or cells: HEK293T
# human KOR (β-arrestin 2) [17] = target: T18, human KOR (β-arrestin 2) (Homo sapiens, UniProt P41145, N322A); test: cell-based; settings: HEK-293T
# T18 construct: expressed in transfected cells; host or cells: HEK293T
# human KOR (β-arrestin 2) [18] = target: T19, human KOR (β-arrestin 2) (Homo sapiens, UniProt P41145, Q115N); test: cell-based; settings: HEK-293T
# T19 construct: expressed in transfected cells; host or cells: HEK293T
# KOR K227A = KOR K227A (Homo sapiens, UniProt P41145, K227A); assay type: cell-based; set-up: expressed in transfected cells; host or cells: HEK 293T (ATCC, CRL-3216); settings: Log [Drug]
# human KOR [19] = target: T20, human KOR (Homo sapiens, UniProt P41145, Y320L); test: cell-based; settings: HTLA
# T20 construct: expressed in transfected cells; host or cells: HEK 293T (ATCC, CRL-3216)
# human KOR [20] = target: T21, human KOR (Homo sapiens, UniProt P41145, W124L); test: cell-based; settings: HTLA
# T21 construct: expressed in transfected cells; host or cells: HEK 293T (ATCC, CRL-3216)
# human KOR [21] = target: T22, human KOR (Homo sapiens, UniProt P41145, V134A); test: cell-based; settings: HTLA
# T22 construct: expressed in transfected cells; host or cells: HEK 293T (ATCC, CRL-3216)
# human KOR [22] = target: T23, human KOR (Homo sapiens, UniProt P41145, W287A); test: cell-based; settings: HTLA
# T23 construct: expressed in transfected cells; host or cells: HEK 293T (ATCC, CRL-3216)
# human KOR [23] = target: T24, human KOR (Homo sapiens, UniProt P41145, K227A); test: cell-based; settings: HTLA
# T24 construct: expressed in transfected cells; host or cells: HEK 293T (ATCC, CRL-3216)
# human KOR [24] = target: T25, human KOR (Homo sapiens, UniProt P41145, G319L); test: cell-based; settings: HTLA
# T25 construct: expressed in transfected cells; host or cells: HEK 293T (ATCC, CRL-3216)
# human KOR [25] = target: T26, human KOR (Homo sapiens, UniProt P41145, F114L); test: cell-based; settings: HTLA
# T26 construct: expressed in transfected cells; host or cells: HEK 293T (ATCC, CRL-3216)
# human KOR [26] = target: T27, human KOR (Homo sapiens, UniProt P41145, Q115N); test: cell-based; settings: HTLA
# T27 construct: expressed in transfected cells; host or cells: HEK 293T (ATCC, CRL-3216)
# KOR Q115N = KOR Q115N (Homo sapiens, UniProt P41145, Q115N); test: cell-based; set-up: TEV cleavage site (C); tTA transcription factor (C); expressed in transfected cells; host or cells: HTLA cells; settings: read-out: Tango response (Figure S4C), KOR Q115N, Log [Drug], replicate values
# Sequence of KOR Q115N (P41145 whole entry Q115N): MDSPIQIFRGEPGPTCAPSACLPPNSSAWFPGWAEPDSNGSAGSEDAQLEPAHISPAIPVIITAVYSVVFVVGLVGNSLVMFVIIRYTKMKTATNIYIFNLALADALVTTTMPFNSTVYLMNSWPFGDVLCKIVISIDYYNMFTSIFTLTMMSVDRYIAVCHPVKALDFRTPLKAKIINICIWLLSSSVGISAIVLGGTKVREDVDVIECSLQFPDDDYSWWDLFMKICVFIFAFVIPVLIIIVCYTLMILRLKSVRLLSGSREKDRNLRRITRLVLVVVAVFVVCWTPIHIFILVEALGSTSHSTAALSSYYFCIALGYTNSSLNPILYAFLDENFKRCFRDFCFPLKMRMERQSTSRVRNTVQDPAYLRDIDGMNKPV
# Sequence of KOR Q115N (P32121 whole entry partner): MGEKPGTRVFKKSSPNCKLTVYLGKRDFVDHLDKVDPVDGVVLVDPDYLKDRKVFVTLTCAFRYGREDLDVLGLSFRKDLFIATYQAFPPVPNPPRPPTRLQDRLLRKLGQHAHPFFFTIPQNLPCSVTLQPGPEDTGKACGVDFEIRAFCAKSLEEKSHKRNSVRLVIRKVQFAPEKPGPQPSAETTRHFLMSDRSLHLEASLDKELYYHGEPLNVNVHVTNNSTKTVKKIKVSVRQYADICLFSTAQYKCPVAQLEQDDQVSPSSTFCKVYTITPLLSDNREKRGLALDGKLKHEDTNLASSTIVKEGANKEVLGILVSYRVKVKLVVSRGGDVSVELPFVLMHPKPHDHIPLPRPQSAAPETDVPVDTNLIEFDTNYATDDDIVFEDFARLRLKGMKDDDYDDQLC
# Sequence of KOR K227A (P41145 whole entry K227A): as the sequence (P41145 whole entry Q115N) above, with N115Q, K227A counted along it
# T26 sequence (P41145 whole entry F114L): as the sequence (P41145 whole entry Q115N) above, with F114L, N115Q counted along it
# T20 sequence (P41145 whole entry Y320L): as the sequence (P41145 whole entry Q115N) above, with N115Q, Y320L counted along it
# T21 sequence (P41145 whole entry W124L): as the sequence (P41145 whole entry Q115N) above, with N115Q, W124L counted along it
# T22 sequence (P41145 whole entry V134A): as the sequence (P41145 whole entry Q115N) above, with N115Q, V134A counted along it
# T10 sequence (P41145 whole entry): as the sequence (P41145 whole entry Q115N) above, with N115Q counted along it
# T25 sequence (P41145 whole entry G319L): as the sequence (P41145 whole entry Q115N) above, with N115Q, G319L counted along it
# T13 sequence (P41145 whole entry K227A): as the sequence (P41145 whole entry Q115N) above, with N115Q, K227A counted along it
# T24 sequence (P41145 whole entry K227A): as the sequence (P41145 whole entry Q115N) above, with N115Q, K227A counted along it
# T27 sequence (P41145 whole entry Q115N): as the sequence (P41145 whole entry Q115N) above
# T19 sequence (P41145 whole entry Q115N): as above
# T15 sequence (P41145 whole entry E297A): as the sequence (P41145 whole entry Q115N) above, with N115Q, E297A counted along it
# T7 sequence (P41145 whole entry L253A): as the sequence (P41145 whole entry Q115N) above, with N115Q, L253A counted along it
# T16 sequence (P41145 whole entry L253A): as the sequence (P41145 whole entry Q115N) above, with N115Q, L253A counted along it
# T5 sequence (P41145 whole entry F114L): as the sequence (P41145 whole entry Q115N) above, with F114L, N115Q counted along it
# T12 sequence (P41145 whole entry F283A): as the sequence (P41145 whole entry Q115N) above, with N115Q, F283A counted along it
# T11 sequence (P35372 whole entry): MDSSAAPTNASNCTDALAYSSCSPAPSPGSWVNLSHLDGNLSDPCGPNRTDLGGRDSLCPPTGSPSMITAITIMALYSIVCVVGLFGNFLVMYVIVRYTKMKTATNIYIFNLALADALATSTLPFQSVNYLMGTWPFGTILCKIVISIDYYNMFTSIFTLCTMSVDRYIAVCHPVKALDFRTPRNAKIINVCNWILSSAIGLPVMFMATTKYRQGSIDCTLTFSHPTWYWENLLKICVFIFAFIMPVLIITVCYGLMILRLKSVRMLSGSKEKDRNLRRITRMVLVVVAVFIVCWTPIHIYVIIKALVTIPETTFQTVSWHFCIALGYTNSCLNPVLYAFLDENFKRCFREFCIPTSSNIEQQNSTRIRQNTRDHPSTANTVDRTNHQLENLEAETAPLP
# T23 sequence (P41145 whole entry W287A): as the sequence (P41145 whole entry Q115N) above, with N115Q, W287A counted along it
# T6 sequence (P41145 whole entry N326A): as the sequence (P41145 whole entry Q115N) above, with N115Q, N326A counted along it
# T1 sequence (P41145 whole entry N141A): as the sequence (P41145 whole entry Q115N) above, with N115Q, N141A counted along it
# T4 sequence (P41145 whole entry R274A): as the sequence (P41145 whole entry Q115N) above, with N115Q, R274A counted along it
# T8 sequence (P41145 whole entry R257A): as the sequence (P41145 whole entry Q115N) above, with N115Q, R257A counted along it
# T3 sequence (P41145 whole entry R170A): as the sequence (P41145 whole entry Q115N) above, with N115Q, R170A counted along it
# T17 sequence (P41145 whole entry Y139L): as the sequence (P41145 whole entry Q115N) above, with N115Q, Y139L counted along it
# T2 sequence (P41145 whole entry G319L): as the sequence (P41145 whole entry Q115N) above, with N115Q, G319L counted along it
# T14 sequence (P41145 whole entry D334A): as the sequence (P41145 whole entry Q115N) above, with N115Q, D334A counted along it
# T9 sequence (P41145 whole entry N322A): as the sequence (P41145 whole entry Q115N) above, with N115Q, N322A counted along it
# T18 sequence (P41145 whole entry N322A): as the sequence (P41145 whole entry Q115N) above, with N115Q, N322A counted along it
smiles,measurement,setting,value
"CN(C(=O)/C=C/c1ccoc1)[C@@H]1CC[C@@]2(O)[C@H]3Cc4ccc(O)c5c4[C@@]2(CCN3CC2CC2)[C@H]1O5 [Nalfurafine, nalfurafine]",Emax,human KOR (GoB) [1],98.7%
same,Emax,human KOR (GoB) [2],108%
same,Emax,human KOR (GoB) [3],87.8%
same,Emax,human KOR (GoB) [4],101%
same,Emax,human KOR (GoB) [5],77.5%
same,Emax,human KOR (GoB) [6],93.6%
same,Emax,human KOR (GoB) [7],107%
same,Emax,human KOR (GoB) [8],99.6%
same,Emax,human KOR (GoB) [9],87.1%
same,Emax%,human KOR (GoB) [10],99.55%
same,Emax,human KOR (GoB) [10]; HEK-293T,99.8%
same,EC50,MOR,5.13 nM
same,Emax,human KOR (β-arrestin 2) [11],100%
same,Emax,human KOR (β-arrestin 2) [12],97.5%
same,Emax,human KOR (β-arrestin 2) [13],78%
same,Emax,human KOR (β-arrestin 2) [14],101%
same,Emax,human KOR (β-arrestin 2) [15],107%
same,Emax,human KOR (β-arrestin 2) [16],113%
same,Emax,human KOR (β-arrestin 2) [17],87.1%
same,Emax,human KOR (β-arrestin 2) [18],67%
same,KOR K227A_Gi response (Figure S4D),"KOR K227A; M -6, replicate values",107.002 and 103.527 and 102.568
same,KOR K227A_Gi response (Figure S4D),"KOR K227A; M -6.5, replicate values",98.0139 and 98.733 and 102.808
same,KOR K227A_Gi response (Figure S4D),"KOR K227A; M -7, replicate values",101.489 and 104.366 and 102.568
same,KOR K227A_Gi response (Figure S4D),"KOR K227A; M -7.5, replicate values",98.3734 and 96.4559 and 94.5383
same,KOR K227A_Gi response (Figure S4D),"KOR K227A; M -8, replicate values",100.531 and 98.0139
same,KOR K227A_Gi response (Figure S4D),"KOR K227A; M -8.5, replicate values",99.8116 and 103.767 and 98.2536
same,KOR K227A_Gi response (Figure S4D),"KOR K227A; M -9, replicate values",96.9353 and 103.167 and 100.291
same,KOR K227A_Gi response (Figure S4D),"KOR K227A; M -9.5, replicate values",98.9727 and 99.5719 and 95.8566
same,KOR K227A_Gi response (Figure S4D),"KOR K227A; M -10, replicate values",99.3322 and 106.283 and 99.5719
same,KOR K227A_Gi response (Figure S4D),"KOR K227A; M -10.5, replicate values",95.9765 and 94.778 and 93.8193
same,KOR K227A_Gi response (Figure S4D),"KOR K227A; M -11, replicate values",90.7033 and 96.5757 and 95.2574
same,KOR K227A_Gi response (Figure S4D),"KOR K227A; M -12, replicate values",68.1721 and 73.8049 and 67.4531
same,KOR K227A_Gi response (Figure S4D),"KOR K227A; M -12.5, replicate values",37.1319 and 43.2441 and 45.1616
same,KOR K227A_Gi response (Figure S4D),"KOR K227A; M -13, replicate values",12.6833 and 10.4062
same,KOR K227A_Gi response (Figure S4D),"KOR K227A; M -14, replicate values",6.331 and 5.612 and 17.3573
same,Emax,human KOR [19],66 ± 7%
same,activation at 0.1 µM,human KOR [19]; read-out: Tango response,43.6%
same,activation at 1 µM,human KOR [19]; read-out: Tango response,51.8%
same,activation at 10 µM,human KOR [19]; read-out: Tango response,79.2%
same,activation at […],human KOR [19]; read-out: Tango response,53% and 72.8%
same,Emax,human KOR [20],26 ± 4%
same,activation at 1 µM,human KOR [20]; read-out: Tango response,19.6%
same,activation at […],human KOR [20]; read-out: Tango response,21% and 25.5%
same,Emax,human KOR [21],76 ± 6%
same,activation at 10 µM,human KOR [21]; read-out: Tango response,71.1%
same,activation at […],human KOR [21]; read-out: Tango response,50.8% and 73.3%
same,Emax,human KOR [22],85 ± 7%
same,Emax,human KOR [23],89 ± 3%
same,Emax,human KOR [24],2.6 ± 1.2%
same,activation at 1 µM,human KOR [24]; read-out: Tango response,4.03%
same,Emax,human KOR [25],17 ± 3%
same,activation at 1 µM,human KOR [25]; read-out: Tango response,16.2%
same,activation at 10 µM,human KOR [25]; read-out: Tango response,15.9%
same,activation at […],human KOR [25]; read-out: Tango response,30.3%
same,Emax,human KOR [26],98 ± 3%
same,activation at 10 µM,KOR Q115N; M -5,106%
same,activation at […],KOR Q115N; M -6.5,92.3%
same,activation at 0.1 µM,KOR Q115N; M -7,92.6%
same,activation at […],KOR Q115N; M -7.5,76.8%
same,activation at 0.01 µM,KOR Q115N; M -8,80.2%
same,activation at […],KOR Q115N; M -8.5,39%

# — PMC10008561 (Nature Communications, 2023)
